Experimental data from US8173682B2, “Substituted pyridones as inhibitors of poly(ADP-ribose) polymerase (PARP)” (Aventis Pharmaceuticals Inc., priority 2004, dated 2012).
Structures can show the parent of a compound that is named as a salt.

Molecular target: T1, recombinant human PARP (PARP1) (Homo sapiens, UniProt P09874)
T1 construct: Full length human PARP (PARP1) is assembled from PCR fragments; His6 tag with TEV site, from the pFastBac-HTb vector (own knowledge of the vector); made in house; host or cells: insect cells, baculovirus (Bac-to-Bac, Gibco-BRL)
Test: PARP enzyme assay, Method A (radioactivity or 'ELISA' enzyme assay with partially purified enzyme)
Type: biochemical
Conditions: recombinant human PARP preparation, radioactive or ELISA enzyme assay
Procedure, shortened: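 Partially purified recombinant full-length His-tagged human PARP1, baculovirus-expressed. Radioactive format: 100 μg/mL sonicated DNA, 100 μg/mL histones, 100 mM Tris pH 8.0, 10 mM MgCl2, 200 μM labeled NAD, 10 min 37 °C or 60 min RT, TCA-precipitated counts. ELISA format: 250 μM NAD plus biotin-NAD on histone plates, TMB A450.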

T1 sequence (P09874 whole entry, the tested form may be a part): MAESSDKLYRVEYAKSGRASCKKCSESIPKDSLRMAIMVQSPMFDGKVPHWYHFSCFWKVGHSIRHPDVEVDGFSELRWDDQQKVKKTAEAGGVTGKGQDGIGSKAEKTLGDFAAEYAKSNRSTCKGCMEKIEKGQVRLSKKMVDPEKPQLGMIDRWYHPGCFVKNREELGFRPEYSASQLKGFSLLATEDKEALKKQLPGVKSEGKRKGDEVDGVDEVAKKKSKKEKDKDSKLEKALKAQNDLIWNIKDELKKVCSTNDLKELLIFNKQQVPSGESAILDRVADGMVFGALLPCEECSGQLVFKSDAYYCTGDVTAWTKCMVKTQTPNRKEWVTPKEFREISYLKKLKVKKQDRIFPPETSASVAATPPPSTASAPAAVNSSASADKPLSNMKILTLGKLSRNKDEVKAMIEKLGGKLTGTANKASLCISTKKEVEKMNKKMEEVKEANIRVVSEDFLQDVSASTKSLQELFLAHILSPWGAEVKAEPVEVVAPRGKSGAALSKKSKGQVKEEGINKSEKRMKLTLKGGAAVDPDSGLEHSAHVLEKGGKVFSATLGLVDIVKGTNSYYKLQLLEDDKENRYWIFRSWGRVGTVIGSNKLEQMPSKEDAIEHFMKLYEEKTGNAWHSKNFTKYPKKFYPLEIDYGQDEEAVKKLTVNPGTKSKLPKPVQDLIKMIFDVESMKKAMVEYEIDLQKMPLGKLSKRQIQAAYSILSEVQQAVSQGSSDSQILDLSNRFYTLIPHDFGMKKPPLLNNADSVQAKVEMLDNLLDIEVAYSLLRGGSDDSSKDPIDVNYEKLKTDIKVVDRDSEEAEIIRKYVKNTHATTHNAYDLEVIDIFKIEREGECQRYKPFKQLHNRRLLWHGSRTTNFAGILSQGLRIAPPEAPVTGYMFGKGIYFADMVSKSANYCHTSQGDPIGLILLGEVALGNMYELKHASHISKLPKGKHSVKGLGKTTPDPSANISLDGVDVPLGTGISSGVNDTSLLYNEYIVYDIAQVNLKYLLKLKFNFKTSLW

SMILES	IC50 [µM]
CCc1cc(-c2ccc(CNCc3nccn3C)s2)c(C)[nH]c1=O [Example 161, 3-Ethyl-6-methyl-5-(5-{[(1-methyl-1H-imidazol-2-yl)methyl)amino]methyl}-thiophen-2-yl)-1H-pyridin-2-one dihydrochloride]	1.3
CCc1cc(-c2ccc(CN3CCC(O)CC3)s2)c(C)[nH]c1=O [Example 127, 3-Ethyl-5-[5-(4-hydroxy-piperidin-1-ylmethyl)-thiophen-2-yl]-6-methyl-1H-pyridin-2-one hydrochloride]	0.67
CCc1cc(-c2ccc(S(=O)(=O)NCCCN3CCCC3=O)s2)c(C)[nH]c1=O [Example 68, 5-[5-Ethyl-2-methyl-6-oxo-1,6-dihydropyridin-3-yl]thiophene-2-sulfonic acid [3-(2-oxopyrrolidin-1-yl)propyl]amide]	1.9
CCc1cc(-c2nnco2)c(C)[nH]c1=O [Example 14, 3-Ethyl-6-methyl-5-(1,3,4-oxadiazol-2-yl)-1H-pyridin-2-one]	0.56
CCc1cc(-c2ccc(S(=O)(=O)N3CCNCC3)s2)c(C)[nH]c1=O [Example 94, 3-Ethyl-6-methyl-5-[5-(piperazine-1-sulfonyl)thiophen-2-yl]-1H-pyridin-2-one hydrochloride]	1.4
CCc1cc(-c2ccc(CNCCC3=CCCCC3)s2)c(C)[nH]c1=O [Example 144, 5-{5-[(2-Cyclohex-1-enyl-ethylamino)-methyl]thiophen-2-yl}-3-ethyl-6-methyl-1H-pyridin-2-one hydrochloride]	0.62
CCc1cc(-c2ccc(S(=O)(=O)NC3CCN(Cc4ccccc4)CC3)o2)c(C)[nH]c1=O [Example 46, 5-(5-Ethyl-2-methyl-6-oxo-1,6-dihydropyridin-3-yl)furan-2-sulfonic acid (1-benzylpiperidin-4-yl)amide hydrochloride]	0.46
CCc1cc(-c2nc[nH]n2)c(C)[nH]c1=O [Example 16, 3-Ethyl-6-methyl-5-(2H-1,2,4-triazol-3-yl)-1H-pyridin-2-one]	0.35
CCc1cc(-c2ccc(S(=O)(=O)NCCCN3CCN(C)CC3)s2)c(C)[nH]c1=O [Example 65, 5-(5-Ethyl-2-methyl-6-oxo-1,6-dihydropyridin-3-yl)thiophene-2-sulfonic acid 3-(4-methylpiperazin-1-yl)propylamide dihydrochloride]	0.67
CCc1cc(-c2ccc(CNCCc3ccccn3)s2)c(C)[nH]c1=O [Example 141, 3-Ethyl-6-methyl-5-{5-[(2-pyridin-2-ylethylamino)methyl]thiophen-2-yl}-1H-pyridin-2-one dihydrochloride]	0.54
CCc1cc(-c2ccc(CNC3Cc4ccccc4C3)s2)c(C)[nH]c1=O [Example 156, 3-Ethyl-5-[5-(indan-2-ylaminomethyl)-thiophen-2-yl]-6-methyl-1H-pyridin-2-one hydrochloride]	0.44
CCc1cc(-c2ccc(CNC3CCCCC3)s2)c(C)[nH]c1=O [Example 190, 5-(5-Cyclohexylaminomethylthiophen-2-yl)-3-ethyl-6-methyl-1H-pyridin-2-one hydrochloride]	0.54
CCc1cc(-c2ccc(S(=O)(=O)NCCCCc3cccnc3)s2)c(C)[nH]c1=O [Example 84, 5-[5-Ethyl-2-methyl-6-oxo-1,6-dihydropyridin-3-yl]thiophene-2-sulfonic acid 4-(pyridin-3-ylbutyl)]amide hydrochloride]	1.6
CCc1cc(-c2ccc(CNCc3cccnc3)s2)c(C)[nH]c1=O [Example 162, 3-Ethyl-6-methyl-5-{5-{[(pyridin-3-ylmethyl)amino]methyl}thiophen-2-yl)-1H-pyridin-2-one dihydrochloride]	0.52
CCc1cc(-c2ccc(S(=O)(=O)NCC3CCN(C(=O)OC(C)(C)C)CC3)s2)c(C)[nH]c1=O [Example 41-1, 5-(5-Ethyl-2-methyl-6-oxo-1,6-dihydropyridin-3-yl)thiophene-2-sulfonic acid (1-tert-butyloxycarbonylpiperidin-4-yl)methylamide]	1.5
CCc1cc(-c2ccc(CNCCc3cnc[nH]3)s2)c(C)[nH]c1=O [Example 155, 3-Ethyl-5-(5-{[(2-(3H-imidazol-4-yl)ethylamino]methyl}thiophen-2-yl)-6-methyl-1H-pyridin-2-one dihydrochloride]	0.71
CCc1cc(-c2ccc(CNCc3cccc(C)c3)s2)c(C)[nH]c1=O [Example 165, 5-{5-[(3-Methylbenzylamino)methyl]thiophen-2-y}]-3-ethyl-6-methyl-1H-pyridin-2-one hydrochloride]	0.98
CCc1cc(-c2ccc(CNC3CCN(Cc4ccccc4)C3)s2)c(C)[nH]c1=O (stereo not drawn) [Example 159, 5-{5-[(1-Benzyl-pyrrolidin-3-ylamino)-methyl]-thiophen-2-yl}-3-ethyl-6-methyl-1H-pyridin-2-one dihydrochloride]	0.72

SMILES	IC50 [µM]
CCc1cc(-c2ccc(S(=O)(=O)N(C)CC(O)c3ccccc3)s2)c(C)[nH]c1=O (stereo not drawn) [Example 37, 5-(5-Ethyl-2-methyl-6-oxo-1,6-dihydropyridin-3-yl)thiophene-2-sulfonic acid (2-hydroxy-2-phenylethyl)methylamide]	2
CCc1cc(-c2ccc(S(=O)(=O)NCc3ccc4c(c3)OCO4)s2)c(C)[nH]c1=O [Example 103, 5-(5-Ethyl-2-methyl-6-oxo-1,6-dihydropyridin-3-yl)-thiophene-2-sulfonic acid (1,3-benzodioxol-5-ylmethyl)amide]	0.14
CCc1cc(-c2ccc(CN3CCOCC3)c(C#N)c2)c(C)[nH]c1=O [Example 2, 5-(5-Ethyl-2-methyl-6-oxo-1,6-dihydropyridin-3-yl)-2-(morpholin-4-yl)methylbenzonitrile]	4.5
CCc1cc(-c2ccc(S(=O)(=O)NC3CCN(Cc4ccc(Cl)cc4)CC3)s2)c(C)[nH]c1=O [Example 76, 5-[5-Ethyl-2-methyl-6-oxo-1,6-dihydropyridin-3-yl]-thiophene-2-sulfonic acid 1-(4-chlorobenzyl)piperidin-4-yl]amide hydrochloride]	0.23
CCc1cc(-c2ccc(S(=O)(=O)N3CCC[C@H]3CNc3ccccc3)s2)c(C)[nH]c1=O [Example 105, 3-Ethyl-6-methyl-5-[5-((S)-2-phenylaminomethylpyrrolidine-1-sulfonyl)-thiophen-2-yl]-1H-pyridin-2-one hydrochloride]	3.1
CCc1cc(-c2ccc(S(=O)(=O)N3CCC(N4CCCCC4)CC3)o2)c(C)[nH]c1=O [Example 51, 3-Ethyl-6-methyl-5-[5-(4-piperidin-1-yl)piperidine-1-sulfonylfuran-2-yl]-1H-pyridin-2-one hydrochloride]	0.22
CCc1cc(-c2ccc(S(=O)(=O)N3CCC(n4ccnc4)CC3)s2)c(C)[nH]c1=O [Example 79, 3-Ethyl-5-[5-(4-imidazol-1-yl)piperidine-1-sulfonyl)thiophen-2-yl]-6-methyl-1H-pyridin-2-one hydrochloride]	0.45
CCc1cc(-c2ccc(CNC3CCN(c4nccc(C(F)(F)F)n4)CC3)s2)c(C)[nH]c1=O [Example 139, dihydrochloride]	2.6
CCc1cc(-c2nnc(C)o2)c(C)[nH]c1=O [Example 15, 3-Ethyl-6-methyl-5-(5-methyl-1,3,4-oxadiazol-2-yl)-1H-pyridin-2-one]	0.72
CCc1cc(-c2ccc(CNCc3cccc(OC)c3)s2)c(C)[nH]c1=O [Example 167, 5-{5-[(3-Methoxybenzylamino)methyl]thiophen-2-y}]-3-ethyl-6-methyl-1H-pyridin-2-one hydrochloride]	0.55
CCc1cc(-c2ccc(CNCc3ccccc3)s2)c(C)[nH]c1=O [Example 157, 5-[5-(Benzylamino-methyl)-thiophen-2-yl]-3-ethyl-6-methyl-1H-pyridin-2-one hydrochloride]	0.6
CCc1cc(-c2ccc(CNCc3cc(F)cc(F)c3)s2)c(C)[nH]c1=O [Example 158, 5-[5-(3,5-Difluorobenzylaminomethyl)thiophen-2-yl]-3-ethyl-6-methyl-1H-pyridin-2-one hydrochloride]	0.51
CCc1cc(-c2ccc(CNCc3ccccc3OC)s2)c(C)[nH]c1=O [Example 187, 3-Ethyl-5-{5-[(2-methoxybenzylamino)methyl]thiophen-2-yl}-6-methyl-1H-pyridin-2-one hydrochloride]	0.4
CCc1cc(-c2ccc(S(=O)(=O)NCC3CCNCC3)s2)c(C)[nH]c1=O [Example 41-2, 5-[5-Ethyl-2-methyl-6-oxo-(1,6-dihydropyridin-3-yl)]thiophene-2-sulfonic acid (piperidin-4-yl)methylamide hydrochloride]	0.52
CCc1cc(-c2ccc(S(=O)(=O)N(C)C)s2)c(C)[nH]c1=O [Example 28, 5-(5-Ethyl-2-methyl-6-oxo-1,6-dihydropyridin-3-yl)thiophene-2-sulfonic acid dimethylamide]	0.72
CCc1cc(-c2ccc(S(=O)(=O)N3CCCC(CO)C3)s2)c(C)[nH]c1=O (stereo not drawn) [Example 90, 3-Ethyl-5-[5-(3-hydroxymethylpiperidine-1-sulfonyl)thiophen-2-yl]-6-methyl-1H-pyridin-2-one]	0.68
CCc1cc(-c2ccc(CNCc3ccccc3Cl)s2)c(C)[nH]c1=O [Example 188, 5-{5-[(2-Chlorobenzylamino)methyl]thiophen-2-yl}-3-ethyl-6-methyl-1H-pyridin-2-one hydrochloride]	0.84
CCc1cc(-c2ccc(S(=O)(=O)NCCOC)s2)c(C)[nH]c1=O [Example 33, 5-(5-Ethyl-2-methyl-6-oxo-1,6-dihydropyridin-3-yl)thiophene-2-sulfonic acid (2-methoxyethyl)amide]	10.5
